PubChem BioAssay AID1918939 (Molecular Pharmacology Branch, DTP, NCI, 2023)
“And” between values parts separate entries of the source, which are not always exact repeats. Equal values may be shown once. One block for each molecule: values may come before it.

Tested on: 653999-131-R-J2-PDC complex spheroid viability
Test: Anticancer human tumor 653999-131-R-J2-PDC patient-derived lung adenocarcinoma cell line growth inhibition
Settings: for viability, T/C: stronger effect = lower value
How it was run: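 Complex spheroids of tumor cells with HUVEC and human MSCs, exposed to iadademstat combined with other agents. Each agent tested in half-log steps from near clinical Cmax (else 10 microM top), DMSO ≤0.25%.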

[1] = curve of first compound, second compound 0.1 µM
[2] = curve of first compound, second compound 0.316 µM
[3] = curve of first compound, second compound 1 µM
[4] = curve of first compound, second compound 3.16 µM
[5] = curve of first compound, second compound 10 µM
[6] = second compound 0.1 µM, first compound 0.0316 µM
[7] = second compound 0.1 µM, first compound 0.1 µM
[8] = second compound 0.1 µM, first compound 0.316 µM
[9] = second compound 0.1 µM, first compound 1 µM
[10] = second compound 0.316 µM, first compound 0.0316 µM
[11] = second compound 0.316 µM, first compound 0.1 µM
[12] = second compound 0.316 µM, first compound 0.316 µM
[13] = second compound 0.316 µM, first compound 1 µM
[14] = second compound 1 µM, first compound 0.0316 µM
[15] = second compound 1 µM, first compound 0.1 µM
[16] = second compound 1 µM, first compound 0.316 µM
[17] = second compound 1 µM, first compound 1 µM
[18] = second compound 3.16 µM, first compound 0.0316 µM
[19] = second compound 3.16 µM, first compound 0.1 µM
[20] = second compound 3.16 µM, first compound 0.316 µM
[21] = second compound 3.16 µM, first compound 1 µM
[22] = second compound 10 µM, first compound 0.0316 µM
[23] = second compound 10 µM, first compound 0.1 µM
[24] = second compound 10 µM, first compound 0.316 µM
[25] = second compound 10 µM, first compound 1 µM
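Further: spheroids exposed to agents for seven days before readout.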

Compound: CC1(C)CCC(CN2CCN(c3ccc(C(=O)NS(=O)(=O)c4ccc(NCC5CCOCC5)c([N+](=O)[O-])c4)c(Oc4cnc5[nH]ccc5c4)c3)CC2)=C(c2ccc(Cl)cc2)C1 + NC1CC1c1ccc(-c2cccc(O)c2)cc1
IC50 [1]: 5740 nM
IC50 [2]: 4870 nM
IC50 [3]: 5190 nM
IC50 [4]: 5260 nM
IC50 [5]: 4530 nM
viability, T/C [6]: 117%
viability, T/C [7]: 118%
viability, T/C [8]: 107%
viability, T/C [9]: 102%
viability, T/C (second compound 0.1 µM, first compound 3.16 µM): 81.5%
viability, T/C (second compound 0.1 µM, first compound 10 µM): 21.6%
viability, T/C [10]: 103%
viability, T/C [11]: 112%
viability, T/C [12]: 101%
viability, T/C [13]: 99.3%
viability, T/C (second compound 0.316 µM, first compound 3.16 µM): 65.7%
viability, T/C (second compound 0.316 µM, first compound 10 µM): 23.6%
viability, T/C [14]: 103%
viability, T/C [15]: 101%
viability, T/C [16]: 107%
viability, T/C [17]: 107%
viability, T/C (second compound 1 µM, first compound 3.16 µM): 72.6%
viability, T/C (second compound 1 µM, first compound 10 µM): 20.2%
viability, T/C [18]: 89.9%
viability, T/C [19]: 84.2%
viability, T/C [20]: 105%
viability, T/C [21]: 86.8%
viability, T/C (second compound 3.16 µM, first compound 3.16 µM): 76.5%
viability, T/C (second compound 3.16 µM, first compound 10 µM): 16.8%
viability, T/C [22]: 85.3%
viability, T/C [23]: 102%
viability, T/C [24]: 89.4%
viability, T/C [25]: 95.8%
viability, T/C (second compound 10 µM, first compound 3.16 µM): 68.8%
viability, T/C (second compound 10 µM, first compound 10 µM): 8.78%

Compound: O=C(C=Cn1cnc(-c2cc(C(F)(F)F)cc(C(F)(F)F)c2)n1)NNc1cnccn1 + NC1CCC(NC2CC2c2ccccc2)CC1
IC50 [1]: 4.91 nM
IC50 [2]: 8.22 nM
IC50 [3]: 12.7 nM
IC50 [4]: 11.1 nM
IC50 [5]: 9.83 nM
viability, T/C (second compound 0.1 µM, first compound 0.00316 µM): 53.1%
viability, T/C (second compound 0.1 µM, first compound 0.01 µM): 46.5%
viability, T/C [6]: 35.8%
viability, T/C [7]: 30.6%
viability, T/C [8]: 31.8%
viability, T/C [9]: 19.6%
viability, T/C (second compound 0.316 µM, first compound 0.00316 µM): 57.2%
viability, T/C (second compound 0.316 µM, first compound 0.01 µM): 48.7%
viability, T/C [10]: 40.9%
viability, T/C [11]: 34.6%
viability, T/C [12]: 29.4%
viability, T/C [13]: 26.2%
viability, T/C (second compound 1 µM, first compound 0.00316 µM): 53.6%
viability, T/C (second compound 1 µM, first compound 0.01 µM): 50.1%
viability, T/C [14]: 48%
viability, T/C [15]: 34.6%
viability, T/C [16]: 30.6%
viability, T/C [17]: 22.4%
viability, T/C (second compound 3.16 µM, first compound 0.00316 µM): 64%
viability, T/C (second compound 3.16 µM, first compound 0.01 µM): 46.3%
viability, T/C [18]: 42.7%
viability, T/C [19]: 35.4%
viability, T/C [20]: 29.1%
viability, T/C [21]: 21.9%
viability, T/C (second compound 10 µM, first compound 0.00316 µM): 60.4%
viability, T/C (second compound 10 µM, first compound 0.01 µM): 45.5%
viability, T/C [22]: 41%
viability, T/C [23]: 40.6%
viability, T/C [24]: 32.5%
viability, T/C [25]: 24.2%

Compound: Cn1ncnc1C1c2n[nH]c(=O)c3cc(F)cc(c23)NC1c1ccc(F)cc1 (centres undefined)
viability, T/C (compound 0.000316 µM): 97.3% and 103%
viability, T/C (compound 0.001 µM): 92.2% and 108%
viability, T/C (compound 0.00316 µM): 96% and 98.3%
viability, T/C (compound 0.01 µM): 99.2% and 101%
viability, T/C (compound 0.0316 µM): 89.6% and 93.2%
viability, T/C (compound 0.1 µM): 94% and 91.3%
IC50 (curve of compound): > 100 nM

Further lines, with some results ahead:

IC50 (compound alone, run of 02/01/2022): > 10000 nM
Compound: NC1CC1c1ccc(-c2cccc(O)c2)cc1 (centres undefined)

IC50 (curve of compound): 401 nM and > 3000 nM
Compound: O=C(C=Cc1cccc(S(=O)(=O)Nc2ccccc2)c1)NO
viability, T/C (compound 0.00949 µM): 87.5% and 110%
viability, T/C (compound 0.03 µM): 96.6% and 99.4%
viability, T/C (compound 0.0949 µM): 75.9% and 90.7%
viability, T/C (compound 0.3 µM): 54.9%
viability, T/C (compound 0.949 µM): 30.9% and 11.4%
